Key:
HL-1 cardiomyocytes [1] = experiment: Mitochondrial biogenesis marker mRNA levels by quantitative RT-PCR in HL-1 cardiomyocytes; type: cell-based, mouse; settings: HL-1 cells; for mRNA levels of mitochondrial biogenesis markers (PGC-1α, NRF1, Tfam, cyt c, COX IV): agent alone vs untreated cells, α5 1% w/v or BCAAem 48 h, 1 μM DOX 16 h; for prevention of DOX-induced decrease of mitochondrial biogenesis marker mRNA: supplement 48 h with 1 μM DOX 16 h, vs DOX-treated cells
Experimental: (§1) Rules of the Declaration of Helsinki have been followed. HL-1 cardiomyocytes were obtained from W.C. Claycomb (Millipore Cat #SCC065) and plated in fibronectin/gelatin-coated flasks, grown to 70-80% confluence in Claycomb medium (Sigma-Aldrich) supplemented with 100 μM norepinephrine (from a 10 mM norepinephrine [Sigma-Aldrich] stock solution dissolved in 30 mM L-ascorbic acid [Sigma-Aldrich]), 2 mM L-glutamine, 100 U/ml penicillin, 100 μg/ml streptomycin and 10% Fetal Bovine Serum (FBS, Sigma-Aldrich). MCF-7 human breast cancer cell line (ATCC® HTB-22™) also available from P. Limonta (Pharmacological and Biomolecular Sciences, University of Milan, Milan, Italy) were cultured in pH 7.4 DMEM, containing streptomycin (100 U/ml), penicillin ([…]), and gentamicin ([…]), and supplemented with 10% FBS. Both cell types were treated with […] or α5 for 48 h and 1 μM DOX for 16 h (FIG. 1). […] The cycle number at which the various transcripts were detectable (threshold cycle, CT) was compared to that of TBP, referred to as ΔCT.

HL-1 cardiomyocytes [2] = experiment: Signaling pathways (eNOS, S6, Sestrin2, Akt, KLF15, BCKDH) in HL-1 cardiomyocytes; type: cell-based, mouse; settings: HL-1 cells
Experimental: as §1, with “HTB-22TM)” for “HTB-22™)”, “Lafayette, CO) or siGENOME nontargeting siRNA using Dharmafect 1 transfection reagent. After 24 h transfection, cells” for “The cycle number at which the various transcripts”, “treated with 1% α5 for 24 h and 1 μM DOX for 16 h. Transfection efficacy” for “detectable (threshold cycle, CT)”, “determined with siGLO-RISC-free nontargeting siRNA and siRNA uptake by fluorescence detection (absorbance/emission 557/570). Proteins were then extracted for Western blotting analysis.” for “compared to that of TBP, referred to as ΔCT.”

[3] = tested on: left ventricle of DOX-treated mice; experiment: Signaling pathways (eNOS, mTORC1, Sestrin2, KLF15, BCKDH) in left ventricle of mice; type: in vivo, C57BL6/J mice
Experimental: (§3) Drinking volume, food intake, and body weight were checked twice weekly. At the end of the treatment period, mice were sacrificed by cervical dislocation and hearts quickly removed and freshly used (for oxygen consumption analysis) or frozen in liquid nitrogen and stored at ˜80° C. (for mtDNA, mRNA, and protein level measurement, in addition to citrate synthase activity analysis).
(§4) Quantitative RT-PCRs were performed as previously described [3-7] with the iQ SybrGreenl SuperMix (Bio-Rad; Segrate, Italy) on an iCycler iQ real-time PCR detection system (Bio-Rad). Briefly, RNA was isolated from left ventricle using the RNeasy Tissue Mini Kit (Qiagen) or from HL-1 cells using the RNeasy Mini Kit (Qiagen). cDNA was synthesized using the iScript cDNA Synthesis Kit (Bio-Rad Laboratories).
Protein extracts were obtained from left ventricle with T-PER mammalian protein extraction reagent (Pierce, ThermoScientific, Rockford, USA) or from HL-1 cells in M-PER mammalian protein extraction reagent (Pierce, ThermoScientific, Rockford, USA), as indicated by the manufacturer, in the presence of 1 mM NaVO4, 10 mM NaF and a cocktail of protease inhibitors (Sigma-Aldrich, Milan, Italy). Protein content was determined by the bicinchoninic acid protein assay (BCA, Pierce, Euroclone, Milan, Italy), and 50 of the protein extract was separated by SDS-PAGE under reducing conditions. The separated proteins were then electrophoretically transferred to a nitrocellulose membrane (Bio-Rad Laboratories, Segrate, Italy) [3-8]. Proteins of interest were detected with specific antibodies: anti-COX IV (cytochrome c oxidase subunit IV, Cell Signaling Technology Cat #4844, Euroclone, Milan, Italy), anti-cyt c (cytochrome complex, Cell Signaling Technology Cat #4280), anti-PGC-1α (proliferator-activated receptor γ coactivator 1α, Cell Signaling Technology Cat #2178), anti-phospho-AKT (Ser473) (Cell Signaling Technology Cat #4060), anti-AKT (Cell Signaling Technology Cat #4685), anti-phospho-eNOS (Ser1177) (phospho-endothelial nitric oxide synthase, Cell Signaling Technology Cat #9571), anti-eNOS (Cell Signaling Technology Cat #9572), anti-phospho-S6 (Ser235/236) (phospho-S6, Cell Signaling Technology Cat #4858), anti-S6 (Cell Signaling Technology Cat #2217), anti-phospho-mTOR (Ser2481) (Cell Signaling Technology Cat #2974), anti-mTOR (Cell Signaling Technology Cat #2972), anti-phospho-BCKDH (Ser293) (Abcam Cat #200577), anti-BCKDH (Abcam Cat #138460), and anti-GAPDH (1:1000, Cell Signaling Technology Cat #2118) at 1:1000 dilution each. After the visualization of phospho-eNOS, phospho-AKT, phospho-mTOR, phospho-S6, and anti-phospho-BCKDH the filters were stripped with the Restore™ western blot stripping buffer (Euroclone, Milan, Italy) and further used for the visualization of total eNOS, total AKT, total mTOR, total S6, or total BCKDH. Immunostaining was performed using horseradish peroxidase-conjugated anti-rabbit or anti-mouse immunoglobulin for 1 h at room temperature. The protein was detected using SuperSignal substrate (Pierce, Euroclone, Milan, Italy) and quantified by densitometry with ImageJ image analysis software.

HL-1 cardiomyocytes [4] = experiment: MTT viability assay of HL-1 cardiomyocytes; type: cell-based, mouse; settings: agent alone; 1% α5 48 h or 1 μM DOX 16 h
Experimental: as §1, with “1). HL-1 cell viability was assessed by MTT [3-(4,5-dimethylthiazol-2-yl)-2,5-diphenyltetrazolium bromide] reagent (Sigma, Milan, Italy).” for “1).”, “purple formazan crystals were dissolved in 5% SDS/0.1 M HCl (100 μl/well), and the absorbance was recorded on a microplate reader (ELx800, BioTek Instruments, VT, USA)” for “cycle number”, “a wavelength of 570 nm. Each test” for “which the various transcripts were detectable (threshold cycle, CT)”, “repeated at least four times in quadruplicates.” for “compared to that of TBP, referred to as ΔCT.”

[5] = tested on: left ventricle of DOX-treated mice; experiment: Mitochondrial biogenesis, mass, function and ROS defense genes in left ventricle of DOX-treated mice
Experimental: as §3, §4
For mtDNA analysis, total DNA was extracted with a QIAamp DNA Extraction Kit (Qiagen). mtDNA was amplified using primers specific for the mtDNA and normalized to the 18S gene (Table 2) [9]. The mtDNA content was determined using qRT-PCR by measuring the threshold cycle ratio (ΔCT) of the mtDNA gene vs. that of a nuclear encoded gene (18S) in left ventricle of DOX-, α5- or DOX plus α5-treated mice, in addition to control untreated mice [10,11].
The activity was measured spectrophotometrically at 412 nm at 30° C. in left ventricle extracts [12,13].

HL-1 cardiomyocytes [6] = experiment: Citrate synthase activity in HL-1 cardiomyocytes; type: cell-based, mouse; settings: HL-1 cells; agent alone vs untreated cells
Experimental: (§2) Rules of the Declaration of Helsinki have been followed. HL-1 cardiomyocytes were obtained from W.C. Claycomb (Millipore Cat #SCC065) and plated in fibronectin/gelatin-coated flasks, grown to 70-80% confluence in Claycomb medium (Sigma-Aldrich) supplemented with 100 μM norepinephrine (from a 10 mM norepinephrine [Sigma-Aldrich] stock solution dissolved in 30 mM L-ascorbic acid [Sigma-Aldrich]), 2 mM L-glutamine, 100 U/ml penicillin, 100 μg/ml streptomycin and 10% Fetal Bovine Serum (FBS, Sigma-Aldrich). MCF-7 human breast cancer cell line (ATCC® HTB-22™) also available from P. Limonta (Pharmacological and Biomolecular Sciences, University of Milan, Milan, Italy) were cultured in pH 7.4 DMEM, containing streptomycin (100 U/ml), penicillin ([…]), and gentamicin ([…]), and supplemented with 10% FBS. Both cell types were treated with […] or α5 for 48 h and 1 μM DOX for 16 h (FIG. 1).

HL-1 cardiomyocytes [7] = experiment: Mitochondrial oxidative stress in HL-1 cardiomyocytes (H2O2 release, aconitase, SOD, anti-ROS genes, 8-OHdG); type: cell-based, mouse; settings: HL-1 cells; agent alone vs untreated cells
Experimental: as §2
To investigate the mitochondrial oxidative stress, mitochondria were isolated using the Qproteome Mitochondria isolation kit (Qiagen). Mitochondrial H2O2 release was measured in the presence of horseradish peroxidase (HRP), using the Amplex Red Hydrogen Peroxide/Peroxidase Assay kit (Molecular Probes). Fluorometric measures were made using a Fusion Universal Microplate Analyzer (Packard/PerkinElmer) with excitation filter at 550 nm and emission filter at 590 nm. H2O2 production, calculated from a standard curve, was expressed as nmol/min/mg protein as described Moreover, mitochondrial aconitase and SOD activity were measured as previously described. Briefly, the formation of NADPH was followed spectrophotometrically (340 nm) at 25° C. (for aconitase activity), while SOD activity was measured with the Superoxide Dismutase Assay Kit (Calbiochem). […] Finally, the oxidative damage of DNA was measured as a further marker of oxidative stress. […] Quality and quantity of DNA were confirmed by a NanoDrop ND-1000 spectrophotometry analysis. Absorbance of the ELISA reaction product was determined spectrophotometrically using 450 nm as the primary wave.

HL-1 cardiomyocytes [8] = experiment: Klf15, eNOS and Raptor siRNA knockdown in HL-1 cardiomyocytes, RT-PCR and immunoblot; type: cell-based, mouse; settings: HL-1 cells
Experimental: For the study of phospho-proteins, HL-1 cells were treated with 1% α5 for 2 h and 1 μM DOX (Doxo-HCl from Sigma-Aldrich D15D15) for the last 60 min. […] After 24 h transfection, cells were treated with 1% α5 for 24 h and 1 μM DOX for 16 h. Transfection efficacy was determined with siGLO-RISC-free nontargeting siRNA and siRNA uptake by fluorescence detection (absorbance/emission 557/570). Proteins were then extracted for Western blotting analysis.

For O=C(O)CCC(=O)O [succinic acid], the “mRNA levels of mitochondrial biogenesis markers (PGC-1α, NRF1, Tfam, cyt c, COX IV)” value (HL-1 cardiomyocytes [1]) was “unable to prevent the DOX-induced reduction of mitochondrial biogenesis as well as to change the mitochondrial gene expression when supplemented alone” and the “prevention of DOX-induced decrease of mitochondrial biogenesis marker mRNA” value (HL-1 cardiomyocytes [1]) was “unable to prevent the DOX-induced reduction of mitochondrial biogenesis”.

O=C(O)CC(O)(CC(=O)O)C(=O)O [citric acid] was tested, and the “mRNA levels of mitochondrial biogenesis markers (PGC-1α, NRF1, Tfam, cyt c, COX IV)” value (HL-1 cardiomyocytes [1]) was “unable to prevent the DOX-induced reduction of mitochondrial biogenesis as well as to change the mitochondrial gene expression when supplemented alone” and the “prevention of DOX-induced decrease of mitochondrial biogenesis marker mRNA” value (HL-1 cardiomyocytes [1]) was “unable to prevent the DOX-induced reduction of mitochondrial biogenesis”.

COc1cccc2c1C(=O)c1c(O)c3c(c(O)c1C2=O)C[C@@](O)(C(=O)CO)C[C@@H]3O[C@H]1C[C@H](N)[C@H](O)[C@H](C)O1 [DOX, doxorubicin] was tested, and the “mRNA levels of mitochondrial biogenesis markers (PGC-1α, NRF1, Tfam, cyt c, COX IV)” value (HL-1 cardiomyocytes [1]) was “decreased”, the “(Ser293)-BCKDH phosphorylation (p-BCKDH)” value (HL-1 cardiomyocytes [2]; DOX vs untreated, α5 with or without DOX) was “not different” and the “(Ser235/236)-S6 phosphorylation” value (HL-1 cardiomyocytes [2]; agent alone) was “markedly decreased”. The “(Ser 473)-Akt phosphorylation” value (HL-1 cardiomyocytes [2]; agent alone) was “markedly reduced Akt phosphorylation”, the “KLF15 expression (mRNA and protein)” value (HL-1 cardiomyocytes [2]; agent alone) was “reduced both at mRNA and protein levels” and the Sestrin2 expression (HL-1 cardiomyocytes [2]; agent alone) was “markedly increased”. The “(Ser1177)-eNOS phosphorylation” value (HL-1 cardiomyocytes [2]; agent alone, 1 μM DOX) was “markedly reduced”, the eNOS gene expression (HL-1 cardiomyocytes [2]; agent alone, 1 μM DOX or α5 1% w/v) was “only slightly decreased” and the “Klf15 mRNA levels in left ventricle” value ([3]; agent alone) was “significantly reduced”. For the same molecule, the “Ser2481 mTOR phosphorylation in heart” value ([3]; agent alone) was “reduced”, the “Sestrin2 mRNA in left ventricle” value ([3]; agent alone) was “markedly increased” and the “eNOS activity, (Ser1177)phospho-eNOS to total eNOS ratio, in left ventricle” value ([3]; agent alone) was “only partially eNOS activity”. For the same molecule, the “eNOS expression in left ventricle” value ([3]; agent alone) was “decreased eNOS expression”, the “(Ser235/236)phospho-S6 to total S6 ratio in left ventricle” value ([3]; agent alone vs saline) was “decreased” and the “(Ser293)-BCKDH phosphorylation in left ventricle” value ([3]; agent alone vs saline-treated) was “unchanged”. For the same molecule, the “HL-1 cell survival (MTT)” value (HL-1 cardiomyocytes [4]) was “DOX-induced death of HL-1 cells”, the “expression of ROS defense enzymes (SOD1, SOD2, catalase, GPX1) in left ventricle” value ([5]; agent alone) was “augmented the expression of ROS defense enzymes” and the “mRNA levels of mitochondrial biogenesis genes in left ventricle” value ([5]; agent alone vs control group) was “reduced”. The “mitochondrial mass and function (mtDNA amount, respiratory proteins particularly COX IV, citrate synthase activity) in left ventricle” value ([5]; agent alone vs saline-treated) was “lower”, the “oxygen consumption rate (OCR) of mitochondria isolated from left ventricle” value ([5]; agent alone, Clark's electrode) was “decreased OCR” and the citrate synthase activity (HL-1 cardiomyocytes [6]) was “reduction of citrate synthase activity”. For the same molecule, the “8-hydroxy-2′-deoxyguanosine (8-OHdG), oxidative DNA damage” value (HL-1 cardiomyocytes [7]) was “higher amount”, the “expression of GPX1 and SOD1 genes” value (HL-1 cardiomyocytes [7]) was “increased” and the “mitochondrial H2O2 release” value (HL-1 cardiomyocytes [7]) was “markedly increased”. The “PGC-1α and COX IV protein” value (HL-1 cardiomyocytes [8]; Klf15 siRNA-transfected or otherwise untreated, DOX exposure) was “significantly decreased both PGC-1α and COX IV protein” and the “(Ser293)-BCKDH phosphorylation in Klf15 knockdown cells” value (HL-1 cardiomyocytes [8]; Klf15 siRNA, DOX-treated and untreated) was “unable to change phosphorylation”.

For O=C(O)CC(O)C(=O)O (centres unmarked) [malic acid], the “mRNA levels of mitochondrial biogenesis markers (PGC-1α, NRF1, Tfam, cyt c, COX IV)” value (HL-1 cardiomyocytes [1]) was “unable to prevent the DOX-induced reduction of mitochondrial biogenesis as well as to change the mitochondrial gene expression when supplemented alone” and the “prevention of DOX-induced decrease of mitochondrial biogenesis marker mRNA” value (HL-1 cardiomyocytes [1]) was “unable to prevent the DOX-induced reduction of mitochondrial biogenesis”.

Reference: patent US12472159B2, “Compositions comprising amino acids for use in the prevention and treatment of chemotherapy side effects” (Professional Dietetics S.p.A., priority 2020, dated 2025)
